Where two headings read alike, the source gives them in different places.
Experiments:
[1] = How it was run: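 LC/MS/MS read-out of parent compound remaining; in vitro t1/2 converted to Clint. Incubation: 1 uM compound, 0.5 mg/mL dog/rat/human liver microsomes, NADPH-regenerating system, duplicate sets, time-points 2–65 minutes.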
[2] = test system: HIV-1 (IIIB) in MT-4 cells; assay: MT-4 HIV assay; assay type: cell-based
How it was run: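 Antiviral activity was read by Cell Titer Glo after a 5-day, 37 °C culture of MT-4 cells pre-infected with a 1:250 dilution of HIV-1 (IIIB). Compounds were tested as threefold dilution series in complete RPMI. Controls were no drug, mock infection and 5 uM AZT.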

[3] = Human immunodeficiency virus 1, MT4, 120 h, HIV-1 (IIIB), MT-4 cells, 5 days, Cell Titer Glo, read-out: EC50
[4] = human liver microsomes 0.5 mg/mL, 1 uM compound, NADPH
[5] = rat liver microsomes 0.5 mg/mL, 1 uM compound, NADPH
[6] = HIV-1 (IIIB), MT-4 cells, 5 days, Cell Titer Glo, read-out: EC50

Compound	Human Pred Cl. ([1]; human, microsomes) [L/H/kg]	Rat. Pred. Cl. ([1]; rat, microsomes) [L/H/kg]	EC50 [2, 3] [nM]	Human Pred Cl. [1, 4] [L/H/kg]	Rat. Pred. Cl. [1, 5] [L/H/kg]	EC50 [2, 6] [nM]	EC50 ([2]; Human immunodeficiency virus 1, MT4, 120 h) [nM]
COC(=O)N[C@H](C(=O)NN(Cc1c(F)cc(-c2ccn(CC(F)F)n2)cc1F)C[C@H](O)[C@H](Cc1ccc(C#Cc2cnc(N3CC4CCC(C3)N4C3COC3)nc2)cc1)NC(=O)[C@@H](NC(=O)OC)C(C)(C)C(F)(F)F)C(C)(C)C [Example 7, methyl ((5S,8S,9S,14S)-11-(4-(1-(2,2-difluoroethyl)-1H-pyrazol-3-yl)-2,6-difluorobenzyl)-9-hydroxy-15,15-dimethyl-8-(4-((2-(8-(oxetan-3-yl)-3,8-diazabicyclo[3.2.1]octan-3-yl)pyrimidin-5-yl)ethynyl)benzyl)-3,6,13-trioxo-5-(1,1,1-trifluoro-2-methylpropan-2-yl)-2-oxa-4,7,11,12-tetraazahexadecan-14-yl)carbamate]	<0.11	0.21	3.61				
COC(=O)N[C@H](C(=O)N[C@@H](Cc1ccc(C#Cc2cnc(N3CC4CCC(C3)N4C3COC3)nc2)cc1)[C@@H](O)CN(Cc1c(F)cc(-c2ccn(C(F)F)n2)cc1F)NC(=O)[C@@H](NC(=O)OC)C(C)(C)C)C(C)(C)C [Example 121, Methyl ((5S,8S,9S,14S)-5-(tert-butyl)-11-(4-(1-(difluoromethyl)-1H-pyrazol-3-yl)-2,6-difluorobenzyl)-9-hydroxy-15,15-dimethyl-8-(4-((2-(8-(oxetan-3-yl)-3,8-diazabicyclo[3.2.1]octan-3-yl)pyrimidin-5-yl)ethynyl)benzyl)-3,6,13-trioxo-2-oxa-4,7,11,12-tetraazahexadecan-14-yl)carbamate]	<0.11	<0.18	3.31				
COC(=O)N[C@H](C(=O)N[C@@H](Cc1ccc(C#Cc2cnc(N3CC4CCC(C3)N4C3COC3)cc2C)cc1)[C@@H](O)CN(Cc1c(F)cc(-c2cnn(C(F)F)c2)cc1F)NC(=O)[C@@H](NC(=O)OC)C(C)(C)C(F)(F)F)C(C)(C)C(F)(F)F [Example 154, Methyl ((5S,8S,9S,14S)-11-(4-(1-(difluoromethyl)-1H-pyrazol-4-yl)-2,6-difluorobenzyl)-16,16,16-trifluoro-9-hydroxy-15,15-dimethyl-8-(4-((4-methyl-6-(8-(oxetan-3-yl)-3,8-diazabicyclo[3.2.1]octan-3-yl)pyridin-3-yl)ethynyl)benzyl)-3,6,13-trioxo-5-(1,1,1-trifluoro-2-methylpropan-2-yl)-2-oxa-4,7,11,12-tetraazahexadecan-14-yl)carbamate]	<0.11	<0.18	4.81				
COC(=O)N[C@H](C(=O)N[C@@H](Cc1ccc(C#Cc2ccc(N3CC4CCC(C3)[N+]4(C)C3COC3)nc2)cc1)[C@@H](O)CN(Cc1c(F)cc(-c2ccn(C(F)F)n2)cc1F)NC(=O)[C@@H](NC(=O)OC)C(C)(C)C(F)(F)F)C(C)(C)C(F)(F)F (stereo partly drawn) [Example 48, 3-(5-((4-((2S,3S)-4-(1-(4-(1-(difluoromethyl)-1H-pyrazol-3-yl)-2,6-difluorobenzyl)-2-((S)-4,4,4-trifluoro-2-((methoxycarbonyl)amino)-3,3-dimethylbutanoyl)hydrazinyl)-3-hydroxy-2-((S)-4,4,4-trifluoro-2-((methoxycarbonyl)amino)-3,3-dimethylbutanamido)butyl)phenyl)ethynyl)pyridin-2-yl)-8-methyl-8-(oxetan-3-yl)-3,8-diazabicyclo[3.2.1]octan-8-ium]	<0.11	0.18	114				
COC(=O)N[C@H](C(=O)N[C@@H](Cc1ccc(C#Cc2cnc(N3CC4CCC(C3)N4C3COC3)nc2)cc1)[C@@H](O)CN(Cc1c(F)cc(-c2cn(C(F)F)cn2)cc1F)NC(=O)[C@@H](NC(=O)OC)C(C)(C)C(F)(F)F)C(C)(C)C(F)(F)F [Example 133, Methyl ((5S,10S,11S,14S)-8-(4-(1-(difluoromethyl)-1H-imidazol-4-yl)-2,6-difluorobenzyl)-16,16,16-trifluoro-10-hydroxy-15,15-dimethyl-11-(4-((2-(8-(oxetan-3-yl)-3,8-diazabicyclo[3.2.]octan-3-yl)pyrimidin-5-yl)ethynyl)benzyl)-3,6,13-trioxo-5-(1,1,1-trifluoro-2-methylpropan-2-yl)-2-oxa-4,7,8,12-tetraazahexadecan-14-yl)carbamate]				<0.11	<0.18	3.44	
COC(=O)N[C@H](C(=O)N[C@@H](Cc1ccc(C#Cc2ccc(N3CC4CCC(C3)N4C3COC3)nc2)cc1)[C@@H](O)CN(Cc1c(F)cc(-c2cc[nH]n2)cc1F)NC(=O)[C@@H](NC(=O)OC)C(C)(C)C(F)(F)F)C(C)(C)C(F)(F)F [Example 126, Methyl ((5S,8S,9S,14S)-11-(2,6-difluoro-4-(1H-pyrazol-3-yl)benzyl)-16,16,16-trifluoro-9-hydroxy-15,15-dimethyl-8-(4-((6-(8-(oxetan-3-yl)-3,8-diazabicyclo[3.2.1]octan-3-yl)pyridin-3-yl)ethynyl)benzyl)-3,6,13-trioxo-5-(1,1,1-trifluoro-2-methylpropan-2-yl)-2-oxa-4,7,11,12-tetraazahexadecan-14-yl)carbamate]	0.45	<0.18	4.13				
COC(=O)N[C@H](C(=O)NN(Cc1c(F)cc(-c2ccc(F)cn2)cc1F)C[C@H](O)[C@H](Cc1ccc(C#Cc2ccc(N3CC4CCC(C3)N4C3COC3)nc2)cc1)NC(=O)[C@@H](NC(=O)OC)C(C)(C)C(F)(F)F)C(C)(C)C [Example 105, Methyl ((5S,8S,9S,14S)-11-(2,6-difluoro-4-(5-fluoropyridin-2-yl)benzyl)-9-hydroxy-15,15-dimethyl-8-(4-((6-(8-(oxetan-3-yl)-3,8-diazabicyclo [3.2.1]octan-3-yl)pyridin-3-yl)ethynyl)benzyl)-3,6,13-trioxo-5-(1,1,1-trifluoro-2-methylpropan-2-yl)-2-oxa-4,7,11,12-tetraazahexadecan-14-yl)carbamate]	0.39		3.16				
Methyl ((5S,8S,9S,14S)-11-(2,6-difluoro-4-(1-methyl-1H-pyrazol-3-yl)benzyl)-16,16,16-trifluoro-9-hydroxy-15,15-dimethyl-8-(4-((6-(8-(oxetan-3-yl)-3,8-diazabicyclo[3.2.1]octan-3-yl)pyridin-3-yl)ethynyl)benzyl-3,6,13-trioxo-5-(1,1,1-trifluoro-2-methylpropan-2-yl)-2-oxa-4,7,11,12-tetraazahexadecan-14-yl)carbamate [Example 128]				0.15	0.37	3.16	
COC(=O)N[C@H](C(=O)N[C@@H](Cc1ccc(-c2cnc(N3CC4CCC(C3)N4C3COC3)nc2)cc1)[C@@H](O)CN(Cc1c(F)cc(-c2ccn(CC(F)F)n2)cc1F)NC(=O)[C@@H](NC(=O)OC)C(C)(C)C(F)(F)F)C(C)(C)C(F)(F)F [Example 197, Methyl ((5S,8S,9S,14S)-11-(4-(1-(2,2-difluoroethyl)-1H-pyrazol-3-yl)-2,6-difluorobenzyl)-16,16,16-trifluoro-9-hydroxy-15,15-dimethyl-8-(4-(2-(8-(oxetan-3-yl)-3,8-diazabicyclo[3.2.1]octan-3-yl)pyrimidin-5-yl)benzyl)-3,6,13-trioxo-5-(1,1,1-trifluoro-2-methylpropan-2-yl)-2-oxa-4,7,11,12-tetraazahexadecan-14-yl)carbamate]	<0.11	0.32	2.61				
COC(=O)N[C@H](C(=O)N[C@@H](Cc1ccc(C#Cc2ccc(N3CCN(C4COC4)CC3)nc2)cc1)[C@@H](O)CN(Cc1c(F)cc(-c2ccc(F)cn2)cc1F)NC(=O)[C@@H](NC(=O)OC)C(C)(C)C(F)(F)F)C(C)(C)C(F)(F)F [Example 97, Methyl ((5S,8S,9S,14S)-11-(2,6-difluoro-4-(5-fluoropyridin-2-yl)benzyl)-16,16,16-trifluoro-9-hydroxy-15,15-dimethyl-8-(4-((6-(4-(oxetan-3-yl)piperazin-1-yl)pyridin-3-yl)ethynyl)benzyl)-3,6,13-trioxo-5-(1,1,1-trifluoro-2-methylpropan-2-yl)-2-oxa-4,7,11,12-tetraazahexadecan-14-yl)carbamate]				0.46	0.31		4.54
COC(=O)N[C@H](C(=O)N[C@@H](Cc1ccc(C#Cc2ccc(N3CC[N+]4([O-])CCOC[C@H]4C3)nc2)cc1)[C@@H](O)CN(Cc1c(F)cc(-c2ccn(C(F)F)n2)cc1F)NC(=O)[C@@H](NC(=O)OC)C(C)(C)C(F)(F)F)C(C)(C)C(F)(F)F (stereo partly drawn) [Example 52, (9aR)-8-(5-((4-((2S,3S)-4-(1-(4-(1-(difluoromethyl)-1H-pyrazol-3-yl)-2,6-difluorobenzyl)-2-((S)-4,4,4-trifluoro-2-((methoxycarbonyl)amino)-3,3-dimethylbutanoyl)hydrazinyl)-3-hydroxy-2-((S)-4,4,4-trifluoro-2-((methoxycarbonyl)amino)-3,3-dimethylbutanamido)butyl)phenyl)ethynyl)pyridin-2-yl)octahydro-5H-pyrazino[2,1-c][1,4]oxazine 5-oxide]			8.15	0.14	<0.18		
